Literature values, collected in US6461634B1, “Food-based delivery of HGH-stimulating and other nutritional supplements” (priority 1999, dated 2002).

Tested on: HGH
Conditions: 5 mg melatonin taken orally one hour prior to vigorous exercise, versus vigorous exercise alone; healthy adult male subjects

## COc1ccc2[nH]cc(CCNC(C)=O)c2c1 [melatonin]
  increase in HGH resulting from vigorous exercise: triple
